Laboratory results from patent US20130029858A1, “Method of Drug Screening through Quantitative Detection by Atomic Force Microscopy and Effective Protein Chips Development through Method Thereof” (NATIONAL APPLIED RESEARCH LABORATORIES, priority 2011, published 2013).

Molecular target: CD28/CD80 binding (Homo sapiens, UniProt P10747)
Experiment: AFM measurement of binding force between imm-CD28 on chips and afm-CD80 on probe, blocking by drug
Description: (a) Immobilizing receptor and ligand [11]: At least one receptor is immobilized on a surface of each one of a plurality of chips and at least one ligand to the receptor is immobilized on a surface of a probe of an AFM. Therein, the chip can be extended to a micro-array chip immobilized with different kinds of receptors.
(b) Binding drug to receptor [12]: A drug is flowed through the chip to bind the drug to the receptor.
(c) Measuring binding force: The AFM is used to processing point-to-point detection for acquiring blocking effect by the drug according to the binding forces between the receptor and the ligand. If the binding force between the drug and the receptor is bigger than the binding force between the receptor and the ligand, the drug is identified as capable of breaking the bond between the receptor and the ligand, vice versa.
Take immuno-suppressive agent as an example. In FIG. 2, a receptor of T-cell membrane, CD28, is immobilized on chips, which is a protein labeled as imm-CD28 [21]. A ligand to CD28, ligand-CD80, is immobilized on a probe of an AFM, which is a receptor on immune B-cell membrane and is labeled as afm-CD80 [31]. Since the binding between CD80 and CD28 is related to human anaphylactic reaction, a small-molecule drug can be applied to block the binding between CD28 and CD80 for reducing immuno-reaction and anaphylactic reaction if the binding force between the drug and CD28 is bigger than that between CD80 and CD28.
Take an immuno-suppressive drug candidate, cynarin, as an example. The imm-CD28 [21] is immobilized on the chips and the afm-CD80 [31] is immobilized on the probe. Then the drug candidate, cynarin, is flowed through the chips to be bond with imm-CD28 [21] and separated from other components. In FIG. 3, a binding force (q1) between CD28 and CD80 on afm-CD80 [31] is great before adding cynarin. After adding the effective immuno-suppressive drug candidate 3, cynarin, the bond between CD28 and CD80 is blocked to form a very small binding force (q2). That is, q1>>q2. […]

CD28/CD80 binding, sequence (P10747 19-152 limits assumed): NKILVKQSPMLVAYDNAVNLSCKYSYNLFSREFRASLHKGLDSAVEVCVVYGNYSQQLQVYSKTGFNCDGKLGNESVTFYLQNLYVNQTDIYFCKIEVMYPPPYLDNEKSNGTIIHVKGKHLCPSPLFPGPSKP

difference between the binding forces before and after adding cynarin (q1−q2) (167 pN−90 pN): about 77 pN
average binding force between CD28 and CD80 after adding cynarin (q2) (after adding cynarin, average of 100 positions on chip, before adding about 167 pN±14 (q1), FIG. 4B): about 90 pN
difference between the binding forces before and after adding cynarin, percent (relative to q1 167 pN): ~46%
SMILES: O=C(/C=C/c1ccc(O)c(O)c1)O[C@@H]1C[C@@](OC(=O)/C=C/c2ccc(O)c(O)c2)(C(=O)O)C[C@@H](O)[C@@H]1O [cynarin]
